Consider five molecules from patent US20190091290A1, “MACROPHAGE STIMULATION IN CD47 BLOCKADE THERAPY” (TRILLIUM THERAPEUTICS INC., priority 2016, published 2019).

Entries after “also recorded” stand apart in the source; their conditions may differ.

For test [1], the system named is M0, M2a and M2b macrophages. Description: Phagocytic response to SIRPaFc after re-polarization of M0, M2a and M2b macrophages. Format: cell-based, human. The conditions noted are these: overnight treatment with the agent; FIGS. 3A-3C. From the text: Heparinized whole blood was obtained from normal healthy human donors (Biological Specialty Corporation) and informed consent was obtained from all donors. Peripheral blood mononuclear cells (PBMCs) were isolated over Ficoll-Paque Plus density gradient (GE Healthcare) and CD14+ monocytes were isolated from PBMCs by positive selection using CD14 antibody-coated MicroBead separation (Miltenyi Biotec). Monocytes were differentiated into macrophages by culturing for at least 10 days in X-Vivo-15 media (Lonza) supplemented with 20 ng/mL M-CSF (PeproTech). Macrophages were washed and were polarized into M0, M2a, and M2b by culturing one day with 20 ng/mL M-CSF, 20 ng/mL IL-4 (PeproTech) or 50 ug/mL heat aggregated human gamma globulin (HAGG) and 20 ng/mL IL-1β (PeproTech), respectively. One day following polarization, polarization media was washed off, and cells were treated with 20 ng/mL IFN-γ (PeproTech), 1000 U/mL IFNα2a (PBL Assay Science), 20 ng/mL IL-10 (PeproTech), 10 ug/mL Poly (I:C) (InvivoGen), 1 ug/mL LPS (MDBiosciences), 1 ug/mL R848 (InvivoGen), or 10 ug/mL ODN2395 CpG (InvivoGen) overnight. On the next day, macrophages were harvested using enzyme-free cell dissociation buffer (ThermoFisher) for flow-based phagocytosis assay. Human B cell lymphoma cell line, Toledo, was labeled with Violet Proliferation Dye 450 (BD Biosciences) and added to repolarized macrophages in a round-bottom non-tissue culture treated 96-well plate at a 1:5 effector:target ratio. […] Cells were acquired on a FACSVerse flow cytometer, and data was analyzed using FlowJo software (Treestar Inc.). Macrophages were identified as live, single, CD14+CD11b+ cells. Doublets were excluded by SSC-W and SSC-H discrimination. Phagocytosis was assessed as the % of macrophages that were VPD450+. Statistical significance was calculated by unpaired t-test vs isotype control using GraphPad Prism software.

Another test concerns CD64. Description: FcγR (CD16, CD32, CD64) expression on re-polarized M0, M2a and M2b macrophages by flow cytometry. Format: cell-based, human. The conditions noted are these: overnight stimulation with the agent, FIG. 4. The text has this: Heparinized whole blood was obtained from normal healthy human donors (Biological Specialty Corporation) and informed consent was obtained from all donors. Peripheral blood mononuclear cells (PBMCs) were isolated over Ficoll-Paque Plus density gradient (GE Healthcare) and CD14+ monocytes were isolated from PBMCs by positive selection using CD14 antibody-coated MicroBead separation (Miltenyi Biotec). Monocytes were differentiated into macrophages by culturing for at least 10 days in X-Vivo-15 media (Lonza) supplemented with 20 ng/mL M-CSF (PeproTech). Macrophages were washed and were polarized into M0, M2a, and M2b by culturing one day with 20 ng/mL M-CSF, 20 ng/mL IL-4 (PeproTech) or 50 ug/mL heat aggregated human gamma globulin (HAGG) and 20 ng/mL IL-1β (PeproTech), respectively. One day following polarization, polarization media was washed off, and cells were treated with 20 ng/mL IFN-γ (Peprotech), 1000 U/mL IFNa2a (PBL Assay Science), 20 ng/mL IL-10 (PeproTech), 10 ug/mL Poly (I:C) (InvivoGen), 1 ug/mL LPS (MDBiosciences), 1 ug/mL R848 (InvivoGen), or 10 ug/mL ODN2395 CpG (InvivoGen) overnight. On the next day, macrophages were harvested using enzyme-free cell dissociation buffer (ThermoFisher) for analysis of CD16, CD32 and CD64 expression. Macrophages were blocked with human Fc receptor binding inhibitor (ebioscience) and were stained with Near-IR LIVE/DEAD fixable dead cell stain (Invitrogen), FITC-conjugated anti-CD16 (Clone CB16), FITC-conjugated anti-CD32 (Clone FL18.26) and V450-conjugated anti-CD64 (Clone 10.1) in three independent cocktails. Cells were washed and resuspended in stabilizing fixative (BD Biosciences), and data was acquired on a FACSVerse flow cytometry machine, and data was analyzed using FlowJo software (Treestar Inc.). Macrophages were identified as live, single cells. Doublets were excluded by SSC-W and SSC-H discrimination.
In general terms: Flow cytometry measures light scatter and fluorescence of single cells or particles in a stream.

Test [2] deals with cancer cells that present with a CD47+ phenotype. The conditions noted are these: described in WO2014/094122; cited from earlier work.
The subject of test [3] is Human B cell lymphoma cell line, Toledo. Description: Flow-based phagocytosis assay: polarized human monocyte-derived macrophages co-cultured with Toledo tumor cells. Format: cell-based. The conditions noted are these: 1 uM SIRPaFc, FIG. 1. From the text: Heparinized whole blood was obtained from normal healthy human donors (Biological Specialty Corporation) and informed consent was obtained from all donors. Peripheral blood mononuclear cells (PBMCs) were isolated over Ficoll-Paque Plus density gradient (GE Healthcare) and CD14+ monocytes were isolated from PBMCs by positive selection using CD14 antibody-coated MicroBead separation (Miltenyi Biotec). Monocytes were differentiated into macrophages by culturing for at least 10 days in X-Vivo-15 media (Lonza) supplemented with 20 ng/mL M-CSF (PeproTech). One day prior to the phagocytosis assay the monocyte-derived macrophages were either left untreated in M-CSF media (M0) or treated overnight with 20 ng/mL M-CSF and 300 ng/mL interferon-gamma (IFN-γ) (PeproTech) as M1, 50 ng/mL IFN-γ and 50 ng/mL LPS (MD Biosciences) as M1+LPS, 20 ng/mL IL-4 (PeproTech) as M2a, 20 ng/mL IL-1β (PeproTech) and 50 ug/mL heat aggregated human IgG (HAGG) as M2b or 20 ng/mL IL-10 (PeproTech) and 20 ng/mL TGF (PeproTech) as M2c. […] Cells were acquired on a FACSVerse flow cytometer, and data was analyzed using FlowJo software (Treestar Inc.). […] Doublets were excluded by SSC-W and SSC-H discrimination. % Phagocytosis was assessed as the % of macrophages that were VPD450+. Statistical significance was calculated by unpaired t-test vs isotype control using GraphPad Prism software, where p***<0.001.

The next test concerns the target CD47 (Homo sapiens, UniProt Q08722). Description: CD47 agonism upon binding.
The test system of another test is red blood cells. Description: Binding to red blood cells.

Sequence of CD47 (Q08722 19-323): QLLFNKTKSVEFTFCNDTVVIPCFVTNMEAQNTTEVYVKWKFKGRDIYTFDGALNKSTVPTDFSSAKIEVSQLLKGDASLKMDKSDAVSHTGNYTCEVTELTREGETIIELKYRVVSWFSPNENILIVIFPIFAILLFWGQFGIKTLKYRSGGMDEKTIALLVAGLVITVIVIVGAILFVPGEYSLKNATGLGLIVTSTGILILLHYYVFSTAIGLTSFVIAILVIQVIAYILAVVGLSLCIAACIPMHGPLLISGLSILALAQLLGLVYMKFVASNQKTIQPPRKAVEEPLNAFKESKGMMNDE

“polyinosine-polycytidylic acid [Poly (I:C), reference compound]”: the “responsiveness to SIRPaFc (phagocytosis of Toledo cells) of M0, M2a and M2b macrophages after repolarization” value (shortened to “responsiveness to SIRPaFc”) in test [1] was “increased”. For the same molecule, in the test on CD64, the “expression of CD64 on M0, M2a and M2b macrophages after repolarization” value (“expression of CD64 on M0” for short) is recorded as “increased”.

As to “SIRPaFc: human SIRPaFc comprising the V region of human SIRPa variant 2 fused to a wild type human IgG1 Fc region, SEQ ID NO: 3”, in test [2], the “effects on the viability of CD47+ cancer cells” value is listed as “dramatic effects”. Besides, the “phagocytosis of DLBCL Toledo cell line by all 6 macrophage subsets” value in test [3] (M0, M1, M1+LPS, M2a, M2b, M2c macrophages from human PBMC, vs control Fc) was “increased phagocytosis”. Further, in test [3] (Toledo cells), the “SIRPαFc induced phagocytosis by M1 (+/−LPS) and M2c MDMs compared to M0, M2a and M2b subsets” value was “superior”. In addition, the “CD47 agonism when binding thereto” value with CD47 is “negligible CD47 agonism”. The “binding to red blood cells” value in the test with red blood cells was “negligible binding”.

For the molecule IFNα [reference compound], in test [1], the “responsiveness to SIRPaFc” value is given as “increased”. Also, the “expression of CD64 on M0” value was “increased” in the test with CD64 and “most striking” in the test with CD64 (listed as IFN-alpha).

B1: IFNγ: interferon-gamma (PeproTech), macrophage stimulating cytokine (protein, UniProt P01579 24-161, looked up)
Interferon gamma: QDPYVKEAENLKKYFNAGHSDVADNGTLFLGILKNWKEESDRKIMQSQIVSFYFKLFKNFKDDQSIQKSVETIKEDMNVKFFNSNKKKRDDFEKLTNYSVTDLNVQRKAIHELIQVMAELSPAAKTGKRKRSQMLFRG
For the molecule B1, in test [1], the “responsiveness to SIRPaFc” value is reported as “increased”. In addition, in the test with CD64, the “expression of CD64 on M0” value is “increased”.

B2: IL-10: interleukin-10 (PeproTech), macrophage stimulating cytokine (protein, UniProt P22301 19-178, looked up)
Interleukin-10: SPGQGTQSENSCTHFPGNLPNMLRDLRDAFSRVKTFFQMKDQLDNLLLKESLLEDFKGYLGCQALSEMIQFYLEEVMPQAENQDPDIKAHVNSLGENLKTLRLRLRRCHRFLPCENKSKAVEQVKNAFNKLQEKGIYKAMSEFDIFINYIEAYMTMKIRN
Turning to B2, the “responsiveness to SIRPaFc” value in test [1] is recorded as “increased”. Moreover, the “expression of CD64 on M0” value in the test on CD64 is reported as “increased; also recorded: most striking”.
